Where “and” joins values, the source holds several entries; their conditions need not be identical. Equal entries are not always repeated. Where two headings read alike, the source gives them in different places.
Columns and labels:
[1] = biological target: liver fatty acid binding protein (L-FABP); parameters: method as in Yang et al. 2020; conditions: ref Yang et al. 2020; read-out: Kd (μM), L-FABP binding affinity; cited from earlier work
zebrafish larvae = test: Bioconcentration factors (BCF) of PFAS in zebrafish larvae; conditions: zebrafish larvae, 120 hpf, three replicates; for BCF 0.5µM: 0.5 µM exposure; for BCF 5µM: 5 µM exposure
Protocol: Zebrafish embryos were collected immediately after spawning, within 1 h, and subsequently transferred to 24-well plates with 1mL of facility water ( 0.036g sea salt, 0.15g sodium bicarbonate in 2L of reverse osmosis water). […] Three well replicates on the same plate were conducted for each concentration of individual chemical. […] Seven batches of experiments were performed to test all 74 PFAS. DMSO controls were incorporated in each batch of exposure experiments. Three replicates were performed for each treatment group, and 20 embryos were used for each replicate. […] For daily replenishment, 2.5mL of old exposure medium were replaced with freshly prepared medium every 24 h from 24 to 96 h post fertilization (hpf). Hatched or dead embryo numbers were recorded every 24 hpf, after which dead embryos were discarded from the growth media. Dead embryos or unhatched embryos were not used for PFAS measurement because the metabolism of PFAS might have been impacted. Zebrafish larvae collection occurred at 120 hpf. First, the larvae were anesthetized by cooling the plate in ice water (0–4°C) for ∼20 min . Then 8–15 larvae in each well were transferred into 1.5-mL tubes. Exposure media was carefully removed, and then the larvae were weighed (wet weight) after blotting excess water with a paper towel. […] Samples were stored at −80 °C until further chemical analysis was performed. Survival rate and hatching rate were calculated by summarizing all the documented data from the whole treatment duration. […] The exposure experiment of PFOSA was repeated using the same procedure as described above.
Each sample was spiked with 2μL of 0.2μg/mL mass-labeled PFAS mixture. Following this, 500μL of dichloromethane/methanol (2:1, vol/vol) was added to each sample for PFAS extraction. Larvae were then homogenized via ultrasonic probe, followed by 30 min of shaking and 30 min of sonication. Each sample was centrifuged at 14,000×g for 5 min, after which the supernatant was transferred to new tubes. Extraction was repeated once and the two supernatants were combined, evaporated under nitrogen flow, and reconstituted in 200μL of methanol for MS analysis.
Three microliters of each zebrafish extract was applied to a C18 column ( 1.5μm; 2.1mm×50mm; Thermo Scientific) and analyzed using a Vanquish ultra-HPLC system (Thermo Fisher Scientific) coupled to a Q Exactive high-resolution mass spectrometer (Thermo Fisher Scientific). The sampler and column compartments were maintained at 4°C and 40°C, respectively. The aqueous mobile phase solution (A) consisted of water, whereas the organic mobile phase solution (B) consisted of acetonitrile. […] MS data was acquired in full scan mode (100–1000 m/z, 70,000 mass resolution, 3×10^6 maximum ions collected per 100 ms), and tandem MS (MS/MS) data was recorded by all-ion fragmentation (AIF) mode. Negative and positive ion modes were carried out simultaneously at a 10-min method duration. […] An overview of the analyses conducted on the various PFAS is available in Table S2.
GraphPad Prism (version 7.0.4; GraphPad Software) and R studio (version 1.1.456; R Studio Inc.) software was used, and an ANOVA with Dunnett tests was employed to evaluate the statistical significance of the percentage hatched and mortality rate. Exponential regressions were used to determine the relationships between bioconcentration factor (BCF) and binding affinities ( Kd ) to L-FABP.

[2] = 5μM through 120 hpf, malformation rate
[3] = zebrafish (Danio rerio), in vivo

Structure (SMILES)	Kd [1]	pericardial oedemata, Mean (zebrafish embryos; [2])	spinal curvature, Mean (zebrafish embryos; [2])	tail dysplasia, Mean (zebrafish embryos; [2])	Mortality (%) (zebrafish embryos; 5 µM, exposure through 120 hpf)	BCF 0.5µM (zebrafish larvae)	BCF 5µM (zebrafish larvae)	Mortality (%) (zebrafish embryos; in vivo)	pericardial oedemata, Mean (zebrafish embryos; in vivo)	spinal curvature, Mean (zebrafish embryos; in vivo)	tail dysplasia, Mean (zebrafish embryos; in vivo)	Lethal effects on zebrafish larvae (zebrafish embryos; 5μM, 5 d)	Mortality (%) (zebrafish embryos; [3])	pericardial oedemata, Mean (zebrafish embryos; [3])	spinal curvature, Mean (zebrafish embryos; [3])	tail dysplasia, Mean (zebrafish embryos; [3])
O=S(=O)(O)C(F)(F)C(F)(F)C(F)(F)C(F)(F)F [compound 73, Perfluorobutanesulfonic acid]	116 µM	0.00%	1.11%	0.00%	5.6%	2.903 L/kg	2.8 ± 0.47 L/kg	–	–	–	–	–	–	–	–	–
OCC(F)(F)C(F)(F)C(F)(F)C(F)(F)C(F)(F)C(F)(F)C(F)(F)C(F)(F)C(F)(F)C(F)(F)C(F)(F)F [compound 50, 11:1 Fluorotelomer alcohol]	–	1.11%	0.00%	1.11%	1.1%	–	1.7 ± 0.23 L/kg	–	–	–	–	–	–	–	–	–
OCC(F)(F)C(F)(F)C(F)(F)C(F)F [compound 48, 1H,1H,5H-Perfluoropentanol]	916 µM	4.44%	6.67%	1.11%	1.1%	–	–	–	–	–	–	–	–	–	–	–
O=C(O)C(F)(F)C(F)(F)C(F)(F)OC(F)(F)F [compound 28, Perfluoro(4-methoxybutanoic) acid]	815 µM	0.00%	2.22%	0.00%	1.1%	5.238 L/kg	1.4 ± 0.17 L/kg	–	–	–	–	–	–	–	–	–
N.O=C(O)C(F)(F)C(F)(F)C(F)(F)C(F)(F)C(F)(F)C(F)(F)C(F)(F)F [compound 21, Ammonium perfluorooctanoate]	18.7 µM	2.22%	1.11%	2.22%	0%	42.5265 L/kg	21 ± 0.42 L/kg	–	–	–	–	–	–	–	–	–
O=C(O)C(F)(F)C(F)(F)C(F)(F)C(F)(F)C(F)(F)F [compound 20, Perfluorohexanoic acid]	141 µM	0.00%	0.00%	0.00%	0%	6.647 L/kg	3.5 ± 0.64 L/kg	–	–	–	–	–	–	–	–	–
O=S(=O)(O)C(F)(F)C(F)(F)C(F)(F)C(F)(F)C(F)(F)C(F)(F)C(F)(F)C(F)(F)F [compound 46, Perfluorooctanesulfonic acid]	8.1 µM	0.00%	0.00%	0.00%	2.2%	270.546 L/kg	91 ± 10 L/kg	–	–	–	–	–	–	–	–	–
O=S(=O)(O)CCC(F)(F)C(F)(F)C(F)(F)C(F)(F)F [compound 15, 4:2 Fluorotelomer sulfonic acid]	–	–	–	–	–	5.68 L/kg	2.5 ± 0.13 L/kg	0	1.11%	0.00%	0.00%	–	–	–	–	–
O=C(O)C(F)(F)C(F)(F)C(F)(F)C(F)(F)C(F)(F)C(F)(F)C(F)(F)C(F)(F)F [compound 17, Perfluorononanoic acid]	4.3 µM	0.00%	0.00%	0.00%	1.1%	152.811 L/kg	73 ± 6.9 L/kg	–	–	–	–	–	–	–	–	–
O=C(O)C=C(C(F)(F)F)C(F)(F)F [compound 23, 3,3-Bis(trifluoromethyl)-2-propenoic acid]	–	1.11%	3.33%	3.33%	2.2%	1.831 L/kg	0.69 ± 0.29 L/kg	–	–	–	–	–	–	–	–	–
O=S(=O)([O-])C(F)(F)C(F)(F)C(F)(F)C(F)(F)C(F)(F)C(F)(F)C(F)(F)C(F)(F)F.[K+] [compound 6, Potassium perfluorooctanesulfonate]	8.1 µM	1.11%	2.22%	1.11%	2.2%	288 ± 99 L/kg and 287.815 L/kg	82 ± 9.2 L/kg	–	–	–	–	–	–	–	–	–
O=C(O)C(F)(F)OC(F)(F)C(F)(F)OC(F)(F)F [compound 54, Perfluoro-3,6-dioxaheptanoic acid]	252 µM	1.11%	0.00%	1.11%	2.2%	2.103 L/kg	2.0 ± 0.40 L/kg	–	–	–	–	–	–	–	–	–
O=S(=O)([O-])C(F)(F)C(F)(F)C(F)(F)C(F)(F)C(F)(F)C(F)(F)F.[K+] [compound 26, Potassium perfluorohexanesulfonate]	11.2 µM	0.00%	0.00%	0.00%	3.3%	55.2382 L/kg	30 ± 0.71 L/kg	–	–	–	–	–	–	–	–	–
OCC(F)(F)C(F)(F)C(F)(F)CO [compound 35, Hexafluoroamylene glycol]	–	1.11%	4.44%	0.00%	0%	1.573 L/kg	1.1 ± 0.09 L/kg	–	–	–	–	–	–	–	–	–
O=C(O)C(F)(F)OC(F)(F)C(F)(F)OC(F)(F)C(F)(F)OC(F)(F)C(F)(F)C(F)(F)C(F)(F)F [compound 34, Perfluoro-3,6,9-trioxatridecanoic acid]	8.22 µM	0.00%	0.00%	0.00%	10%	585 ± 174 L/kg and 584.908 L/kg	93 ± 19 L/kg	–	–	–	–	–	–	–	–	–
CCNS(=O)(=O)C(F)(F)C(F)(F)C(F)(F)C(F)(F)C(F)(F)C(F)(F)C(F)(F)C(F)(F)F [compound 24, N-Ethylperfluorooctanesulfonamide]	–	1.11%	1.11%	1.11%	3.3%	28.4424 L/kg	24 ± 2.9 L/kg	–	–	–	–	did not cause significant lethal effects	–	–	–	–
O=C(/C=C(\O)C(F)(F)F)C(F)(F)F [compound 61, 3H-Perfluoro-4-hydroxy-3-penten-2-one]	135 µM	–	–	–	–	–	7.7 ± 2.3 L/kg	–	–	–	–	–	4.4	0.00%	0.00%	0.00%
O=S(=O)([O-])C(F)(F)C(F)(F)C(F)(F)C(F)(F)F.[K+] [compound 57, Potassium perfluorobutanesulfonate]	125 µM	1.11%	0.00%	0.00%	2.2%	4.038 L/kg	3.0 ± 0.54 L/kg	–	–	–	–	–	–	–	–	–
O=C(O)C(F)(F)OC(F)(F)C(F)(F)OC(F)(F)C(=O)O [compound 7, Perfluoro-3,6-dioxaoctane-1,8-dioic acid]	–	2.22%	1.11%	0.00%	1.1%	NDb	–	–	–	–	–	–	–	–	–	–
